Source: patent US8927571B2, “Pyrido[4,3-B]indoles and methods of use” (Medivation Technologies, Inc., priority 2009, dated 2015)

Columns and labels:
[1] = molecular target: human recombinant histamine H1 receptor (Homo sapiens, UniProt P35367); assay: Histamine H1 radioligand binding assay ([3H]Pyrilamine); conditions: percent inhibition of specific binding of […] [3H]Pyrilamine; compounds screened at 1 μM or lower
Method: To evaluate in radioligand binding assays the activity of compounds of the invention, human recombinant histamine H1 receptor expressed in Chinese hamster ovary (CHO) cells (De Backer, M. D. et al., Biochem. Biophys. Res. Comm. 197(3):1601, 1993) in a modified Tris-HCl buffer (50 mM Tris-HCl, pH 7.4, 2 mM MgCl2, 100 mM NaCl, 250 mM Sucrose) was used. Compounds of the invention were incubated with 1.2 nM [^3H]Pyrilamine for 180 min at 25° C. Non-specific binding was estimated in the presence of 1 μM pyrilamine. Receptor proteins were filtered and washed, the filters were then counted to determine [^3H]Pyrilamine specifically bound. Compounds were screened at 1 μM or lower, using 1% DMSO as vehicle. Biochemical assay results are presented as the percent inhibition of specific binding in Table 2.

[2] = molecular target: T1, human recombinant histamine H2 receptor (Homo sapiens, UniProt P25021); assay: Histamine H2 radioligand binding assay ([125I]Aminopotentidine); conditions: percent inhibition of specific binding of 0.1 nM [125I]Aminopotentidine; compounds screened at 1 μM or lower
T1 construct: expressed in transfected cells; host or cells: Chinese hamster ovary (CHO) K1 cells
T1 sequence (P25021 whole entry): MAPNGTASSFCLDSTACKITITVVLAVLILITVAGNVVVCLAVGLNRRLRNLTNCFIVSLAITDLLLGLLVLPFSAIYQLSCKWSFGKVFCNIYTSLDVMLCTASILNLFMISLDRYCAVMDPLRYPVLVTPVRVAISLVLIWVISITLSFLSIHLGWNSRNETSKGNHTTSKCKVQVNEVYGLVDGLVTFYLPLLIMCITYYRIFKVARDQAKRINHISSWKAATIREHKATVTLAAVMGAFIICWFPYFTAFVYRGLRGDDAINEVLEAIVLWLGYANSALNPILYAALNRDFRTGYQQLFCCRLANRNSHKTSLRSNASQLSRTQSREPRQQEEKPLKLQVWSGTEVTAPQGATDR
Method: To evaluate in radioligand binding assays the activity of compounds of the invention, human recombinant histamine H2 receptor expressed in Chinese hamster ovary (CHO) K1 cells (Ruat, M., Proc. Natl. Acad. Sci. USA. 87(5):1658, 1990) in a 50 mM Phosphate buffer, pH 7.4 was used. Compounds of the invention were incubated with 0.1 nM [^125I]Aminopotentidine for 120 min at 25° C. Non-specific binding was estimated in the presence of 3 μM Tiotidine. Receptor proteins were filtered and washed, the filters were then counted to determine [^125I]Aminopotentidine specifically bound. Compounds were screened at 1 μM or lower, using 1% DMSO as vehicle. Biochemical assay results are presented as the percent inhibition of specific binding in Table 2.

[3] = molecular target: T2, human recombinant adrenergic α2B receptor (Homo sapiens, UniProt P18089); assay: Adrenergic α2B radioligand binding assay ([3H]Rauwolscine); conditions: 2.5 nM [3H]Rauwolscine, read-out: Percent Inhibition of ligand binding, Adrenergic (1 μM) α2B
T2 construct: expressed in transfected cells; host or cells: Chinese hamster ovary (CHO-K1) cells
T2 sequence (P18089 1-450): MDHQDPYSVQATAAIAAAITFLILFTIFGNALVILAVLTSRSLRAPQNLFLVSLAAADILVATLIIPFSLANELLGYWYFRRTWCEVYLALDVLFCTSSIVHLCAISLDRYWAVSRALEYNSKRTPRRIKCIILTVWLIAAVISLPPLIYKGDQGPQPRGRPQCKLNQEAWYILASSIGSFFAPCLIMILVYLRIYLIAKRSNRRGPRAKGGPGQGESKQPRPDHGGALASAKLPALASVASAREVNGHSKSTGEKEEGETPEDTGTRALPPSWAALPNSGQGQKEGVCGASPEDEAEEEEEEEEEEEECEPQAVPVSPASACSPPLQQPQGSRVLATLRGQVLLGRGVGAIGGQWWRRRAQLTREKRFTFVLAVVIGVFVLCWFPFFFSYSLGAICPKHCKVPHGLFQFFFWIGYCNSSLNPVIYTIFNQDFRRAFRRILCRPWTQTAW
Method: To evaluate in radioligand binding assays the activity of compounds of the invention, human recombinant adrenergic α2B receptor expressed in Chinese hamster ovary (CHO-K1) cells (Uhlen S et al. Eur. J. Pharmacol. 343(1):93, 1998) in a modified Tris-HCl buffer (50 mM Tris-HCl, pH 7.4, 12.5 mM MgCl2, 1 mM EDTA, 0.2% BSA) was used. Compounds of the invention were incubated with 2.5 nM [^3H]Rauwolscine for 60 min at 25° C. Non-specific binding was estimated in the presence of 10 μM Prozosin. Receptor proteins were filtered and washed, the filters were then counted to determine [^3H]Rauwolscine specifically bound. Compounds were screened at 1 μM or lower, using 1% DMSO as vehicle. Biochemical assay results are presented as the percent inhibition of specific binding in Table 3.

[4] = molecular target: T3, human recombinant serotonin (5-Hydroxytryptamine) 5-HT2C receptor (Homo sapiens, UniProt P28335); assay: Serotonin 5-HT2C radioligand binding assay ([3H]Mesulergine); conditions: 1 nM [3H]Mesulergine, read-out: Percent Inhibition of ligand binding, Serotonin (1 μM) 5-HT2C
T3 construct: expressed in transfected cells; host or cells: Chinese hamster ovary (CHO-K1) cells
T3 sequence (P28335 33-458): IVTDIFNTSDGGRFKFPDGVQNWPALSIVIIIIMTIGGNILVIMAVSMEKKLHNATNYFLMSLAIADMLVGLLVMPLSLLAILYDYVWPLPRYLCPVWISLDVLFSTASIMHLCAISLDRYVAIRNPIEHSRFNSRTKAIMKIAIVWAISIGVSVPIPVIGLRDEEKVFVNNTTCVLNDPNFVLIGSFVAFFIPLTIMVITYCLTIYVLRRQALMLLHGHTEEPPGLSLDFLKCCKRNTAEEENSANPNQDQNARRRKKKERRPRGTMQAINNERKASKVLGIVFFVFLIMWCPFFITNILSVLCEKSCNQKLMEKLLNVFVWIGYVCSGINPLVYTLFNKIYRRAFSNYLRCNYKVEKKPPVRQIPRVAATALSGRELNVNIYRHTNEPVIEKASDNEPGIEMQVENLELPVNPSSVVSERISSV
Method: Compounds of the invention were incubated with 1 nM [^3H]Mesulergine for 60 min at 25° C. Non-specific binding was estimated in the presence of 1 μM Mianserin. Receptor proteins were filtered and washed, the filters were then counted to determine [^3H]Mesulergine specifically bound. Compounds were screened at 1 μM or lower, using 1% DMSO as vehicle. Biochemical assay results are presented as the percent inhibition of specific binding in Table 4.

Sequence of human recombinant histamine H1 receptor (P35367 whole entry): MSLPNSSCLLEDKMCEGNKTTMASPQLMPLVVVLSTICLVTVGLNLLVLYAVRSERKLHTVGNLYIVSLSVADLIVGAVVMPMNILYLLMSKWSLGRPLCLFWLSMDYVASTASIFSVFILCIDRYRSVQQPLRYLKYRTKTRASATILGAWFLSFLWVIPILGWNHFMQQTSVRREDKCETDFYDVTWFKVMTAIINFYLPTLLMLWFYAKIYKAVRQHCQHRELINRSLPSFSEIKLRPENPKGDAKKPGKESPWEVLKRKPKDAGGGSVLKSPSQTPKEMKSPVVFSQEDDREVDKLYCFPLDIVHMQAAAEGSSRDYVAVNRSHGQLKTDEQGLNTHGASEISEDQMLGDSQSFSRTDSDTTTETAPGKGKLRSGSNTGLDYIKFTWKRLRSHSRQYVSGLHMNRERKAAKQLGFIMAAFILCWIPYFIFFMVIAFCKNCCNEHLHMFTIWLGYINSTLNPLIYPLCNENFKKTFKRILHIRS

Cc1ccc2c(c1)c1c(n2CC2(c3ccc(F)cc3)OCCO2)CCN(C)C1 [Compound 3, 5-((2-(4-fluorophenyl)-1,3-dioxolan-2-yl)methyl)-2,8-dimethyl-2,3,4,5-tetrahydro-1H-pyrido[4,3-b]indole]
Binding Data (% Inhibition) Histamine Binding H1 [1]: 86% | Binding Data (% Inhibition) Histamine Binding H2 [2]: 96% | inhibition at 1 µM [3]: 106% | inhibition at 1 µM [4]: 93%

CCOC(=O)CC(Cn1c2c(c3cc(C)ccc31)CN(C)CC2)c1ccc(F)cc1 (stereo not drawn) [Compound 6, ethyl 4-(2,8-dimethyl-3,4-dihydro-1H-pyrido[4,3-b]indol-5(2H)-yl)-3-(4-fluorophenyl)butanoate]
Binding Data (% Inhibition) Histamine Binding H2 [2]: 86% | inhibition at 1 µM [3]: 95% | inhibition at 1 µM [4]: 93%

CN1CCc2c(c3cc(Cl)ccc3n2CC2(c3ccc(F)cc3)OCCO2)C1 [Compound 4, 8-chloro-5-((2-(4-fluorophenyl)-1,3-dioxolan-2-yl)methyl)-2-methyl-2,3,4,5-tetrahydro-1H-pyrido[4,3-b]indole]
Binding Data (% Inhibition) Histamine Binding H1 [1]: 87% | Binding Data (% Inhibition) Histamine Binding H2 [2]: 96% | inhibition at 1 µM [3]: 103% | inhibition at 1 µM [4]: 101%

Cc1ccc2c(c1)c1c(n2CC2(c3ccccc3)OCCO2)CCN(C)C1 [Compound 2, 2,8-dimethyl-5-((2-phenyl-1,3-dioxolan-2-yl)methyl)-2,3,4,5-tetrahydro-1H-pyrido[4,3-b]indole]
Binding Data (% Inhibition) Histamine Binding H1 [1]: 71% | Binding Data (% Inhibition) Histamine Binding H2 [2]: 89% | inhibition at 1 µM [3]: 103% | inhibition at 1 µM [4]: 96%

CN1CCc2c(c3cc(Cl)ccc3n2CC2(c3ccc(Cl)cc3)OCCO2)C1 [Compound 5, 8-chloro-5-((2-(4-chlorophenyl)-1,3-dioxolan-2-yl)methyl)-2-methyl-2,3,4,5-tetrahydro-1H-pyrido[4,3-b]indole]
Binding Data (% Inhibition) Histamine Binding H1 [1]: 90% | Binding Data (% Inhibition) Histamine Binding H2 [2]: 98% | inhibition at 1 µM [3]: 97% | inhibition at 1 µM [4]: 100%

CNC(=O)CC(Cn1c2c(c3cc(C)ccc31)CN(C)CC2)c1ccc(F)cc1 (stereo not drawn) [Compound 8, 4-(2,8-dimethyl-3,4-dihydro-1H-pyrido[4,3-b]indol-5(2H)-yl)-3-(4-fluorophenyl)-N-methylbutanamide]
Binding Data (% Inhibition) Histamine Binding H1 [1]: 6% | Binding Data (% Inhibition) Histamine Binding H2 [2]: 22% | inhibition at 1 µM [3]: 72% | inhibition at 1 µM [4]: 95%

Cc1ccc2c(c1)c1c(n2CC(CC(=O)O)c2ccc(F)cc2)CCN(C)C1 (stereo not drawn) [Compound 7, 4-(2,8-dimethyl-3,4-dihydro-1H-pyrido[4,3-b]indol-5(2H)-yl)-3-(4-fluorophenyl)butanoic acid]
Binding Data (% Inhibition) Histamine Binding H1 [1]: −1% | Binding Data (% Inhibition) Histamine Binding H2 [2]: 5% | inhibition at 1 µM [3]: 12% | inhibition at 1 µM [4]: 14%
